{
  "source": "patent US20230289968A1",
  "about": "“AUTOMATED ANALYSIS OF CELL CULTURES” (Hoffmann-La Roche Inc., priority 2020, published 2023)",
  "key": {"[1]": {"tested_on": "MDA-MB-231 cells", "assay": "Breast-cancer-on-chip culture, time-lapse imaging analysed with STAMP (apoptosis rate, Pdeath)", "assay_type": "cell-based", "conditions": "1 µM doxorubicin", "procedure": "Cell cultures The MDA-MB-231 cell line, from triple negative breast cancer, was cultured in high-glucose DMEM (GE Healthcare, #SH30081.01) supplemented with 10% fetal bovine serum (Biosera), 1% Penicillin/Streptomycin (Gibco), 1% glutamine (Gibco). The IGR-Pub lung adenocarcinoma cells and the autologous T cells P62 were harvested from the same patient in Institut Gustave Roussy. The IGR-Pub cells were cultured in DMEM F12 (GIBCO) supplemented with 10% fetal bovine serum (Biosera), 1% of Ultroser G (Pall), 1% of Sodium Pyruvate (Gibco) and 1% Penicillin/Streptomycin (GIBCO). P62 T cells were cultured in RPMI-1640 (GE Healthcare) supplemented with 10% human AB serum (Institut Jacques Boy, Reims, France), rIL-2 (20 U/ml, Gibco), 1% of Sodium Pyruvate (Gibco) and 0.1% Penicillin/Streptomycin (Gibco). Primary cancer-associated fibroblasts (CAFs) were isolated and cultured as previously reported. All cell lines were periodically tested to exclude mycoplasma contamination using a qPCR-based method (VenorGem Classic, BioValley, #11-1250). The MDA-MB-231 cell line was authenticated by SRT profiling (GenePrint 10 system, Promega, #B9510). Doxorubicin was purchased from Teva pharmaceuticals (200 mg/ml).\nTumor-on-chip preparation The microfluidic devices were purchased from AIM-Biotech (#DAX-1). Cells were seeded in the central chamber of the DAX-1 chips embedded in a matrix composed of type I rat tail collagen (Thermofisher, #A1048301) at the final concentration of 2.3 mg/ml. Cancer cells were seeded in the gel at a final density of 2×10^6 cells/ml. Autologous T cells were added at final densities of 0.2×10^6 to 2×10^6 cells/ml in order to obtain different ratios (from 10:1 to 1:1) between cancer and T cells. Primary CAFs were added at cancer:CAF 6:1 ratio. The microfluidic devices were incubated for 30 min at 37° C. in a humidified chamber to allow the polymerization of the collagen solution; afterwards, 120 µl of culture medium were added in each lateral chamber. MDA-MB-231 cells in chip were cultured in the same medium used for dish 2D culture, whereas the IGR-Pub/P62 cells co-cultures were cultured in T-cell medium, supplemented with rIL-2 (10 U/ml, GIBCO, #PHC0027). After the addition of the medium, the microfluidic devices were kept for 1 hour in the incubator before transfer to the incubating chamber of the microscope for imaging.\nCell staining Cancer cells were labeled with CellTrace™ Yellow (Thermofisher, #C34567) before seeding in the gel, for the detection in the so-called “red channel” of fluorescence. […] CellTrace™ exists in 4 colours so up to 5 different cell populations could potentially be analysed separately (4 colours + unstained) by staining the cells prior to mixing. […]"}, "[2]": {"tested_on": "MDA-MB-231 cells co-cultured with CAFs", "assay": "Breast-cancer-on-chip co-culture with cancer-associated fibroblasts, STAMP apoptosis rate", "assay_type": "cell-based", "conditions": "1 µM doxorubicin, 6:1 cancer:CAF ratio, TLAG = 4 h, 68 hrs", "procedure": "MDA-MB-231 cancer cells were co-cultured on-chip +/- cancer-associated fibroblasts (CAFs) and +/- doxorubicin (1 µM) treatment. Final CAF:cancer ratio was 1:6. […] The data are the means of 3 measurements coming from 3 videos of the same experiment (+/- SEM). The data illustrating the MDA-MB-231 without CAFs conditions come from the same videos analyzed for FIG. 4 but with different time-interval resolution.\nCell cultures The MDA-MB-231 cell line, from triple negative breast cancer, was cultured in high-glucose DMEM (GE Healthcare, #SH30081.01) supplemented with 10% fetal bovine serum (Biosera), 1% Penicillin/Streptomycin (Gibco), 1% glutamine (Gibco). The IGR-Pub lung adenocarcinoma cells and the autologous T cells P62 were harvested from the same patient in Institut Gustave Roussy. […]\nHaving established that the STAMP method accurately monitors cancer death within co-cultures of cancer and T cells, we moved to bi-cultures of cancer cells and cancer-associated fibroblasts (CAFs). […] Since it is well established that CAFs contribute to chemoresistance in various cancer types, by co-culturing primary breast CAFs with the breast cancer MDA-MB-231 cells, we assessed the capacity of ToC to recapitulate the CAF impact on doxorubicin resistance ex vivo."}},
  "data": [
    {"compound": "COc1cccc2c1C(=O)c1c(O)c3c(c(O)c1C2=O)C[C@@](O)(C(=O)CO)C[C@@H]3O[C@H]1C[C@H](N)[C@H](O)[C@H](C)O1", "note": "[doxorubicin]", "values": [
      {"measurement": "latency in the response to doxorubicin", "setting": "[1]; 3D on-chip (FIG. 4C, right)", "result": 20, "unit": "h"},
      {"measurement": "death rate during the first 20 hrs of treatment", "setting": "[1]; TLAG = 10 hrs, 3D on-chip", "result": "remained at basal level"},
      {"measurement": "death rate (apoptosis rate) in 10 hrs-time-intervals", "setting": "[1]; after 20 hrs of exposure, TLAG = 10 hrs, 3D on-chip, 72 h", "result": "more than 10%"},
      {"measurement": "Potential of death induction (Pdeath) increase", "setting": "[1]; during the first 2 days, remains high during the 3rd day, T̃ = 16 hr", "result": "3-4 fold"},
      {"measurement": "doxorubicin-dependent apoptotic increase in presence of CAFs", "setting": "[2]", "result": "completely impaired"}
    ]}
  ]
}
